The text below walks through data of ChEMBL document CHEMBL1127341, “Synthesis and biological evaluation of 5-[[3,5-bis(1,1-dimethylethyl)- 4-hydroxyphenyl]methylene]oxazoles, -thiazoles, and -imidazoles: novel dual 5-lipoxygenase and cyclooxygenase inhibitors with antiinflammatory activity” (J Med Chem, 1994).

The term inhibition denotes the change of the read-out against control, counted positive when it falls. By IC50 is commonly meant the concentration that inhibits the measured activity by half. What is called inhibition in vivo is how much of the control response was suppressed.

Experiment [1] deals with T1, Cyclooxygenase (Rattus norvegicus) (UniProt P35355+Q63921). The experiment is described as follows: Inhibitory activity against Prostaglandin G/H synthase in intact rat basophilic leukemia cells stimulated with the calcium ionophore A-23187 at 10 uM. It is filed as cell-based. To be noted: RBL-1.
T1 sequence (P35355 whole entry, looked up): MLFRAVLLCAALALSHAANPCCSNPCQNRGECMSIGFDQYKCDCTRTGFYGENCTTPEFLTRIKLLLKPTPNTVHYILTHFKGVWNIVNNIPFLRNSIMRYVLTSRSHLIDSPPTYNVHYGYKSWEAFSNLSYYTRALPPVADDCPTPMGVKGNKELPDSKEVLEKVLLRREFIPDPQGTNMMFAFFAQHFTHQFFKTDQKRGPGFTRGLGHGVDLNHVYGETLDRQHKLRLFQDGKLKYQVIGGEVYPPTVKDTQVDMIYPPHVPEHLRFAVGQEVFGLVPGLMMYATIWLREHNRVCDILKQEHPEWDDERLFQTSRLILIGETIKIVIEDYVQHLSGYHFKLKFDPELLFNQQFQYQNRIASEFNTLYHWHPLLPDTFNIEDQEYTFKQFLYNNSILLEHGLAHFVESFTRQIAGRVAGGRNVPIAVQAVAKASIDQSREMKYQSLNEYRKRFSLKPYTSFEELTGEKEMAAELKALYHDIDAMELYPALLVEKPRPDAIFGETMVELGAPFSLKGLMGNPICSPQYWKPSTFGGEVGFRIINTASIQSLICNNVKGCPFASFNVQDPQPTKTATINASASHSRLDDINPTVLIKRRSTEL
T1 sequence (Q63921 whole entry, looked up): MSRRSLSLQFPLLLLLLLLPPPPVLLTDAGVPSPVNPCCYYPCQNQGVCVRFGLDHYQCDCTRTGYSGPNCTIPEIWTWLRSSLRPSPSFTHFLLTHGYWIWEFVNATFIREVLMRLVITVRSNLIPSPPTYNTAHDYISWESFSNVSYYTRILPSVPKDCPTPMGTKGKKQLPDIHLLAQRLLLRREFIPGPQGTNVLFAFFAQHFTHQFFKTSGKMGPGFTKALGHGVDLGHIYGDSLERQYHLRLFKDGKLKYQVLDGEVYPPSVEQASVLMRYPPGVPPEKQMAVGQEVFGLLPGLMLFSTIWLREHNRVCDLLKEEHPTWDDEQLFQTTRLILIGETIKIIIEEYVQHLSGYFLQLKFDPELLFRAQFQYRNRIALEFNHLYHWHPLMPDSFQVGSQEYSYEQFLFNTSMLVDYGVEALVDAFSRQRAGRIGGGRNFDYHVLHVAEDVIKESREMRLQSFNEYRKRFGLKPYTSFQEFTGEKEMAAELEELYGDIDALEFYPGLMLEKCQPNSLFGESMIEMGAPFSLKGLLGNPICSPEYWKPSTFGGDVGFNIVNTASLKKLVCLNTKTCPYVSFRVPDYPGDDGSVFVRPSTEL
The target of experiment [2] is T2, Polyunsaturated fatty acid 5-lipoxygenase (Rattus norvegicus, UniProt P12527).
T2 sequence (P12527 whole entry): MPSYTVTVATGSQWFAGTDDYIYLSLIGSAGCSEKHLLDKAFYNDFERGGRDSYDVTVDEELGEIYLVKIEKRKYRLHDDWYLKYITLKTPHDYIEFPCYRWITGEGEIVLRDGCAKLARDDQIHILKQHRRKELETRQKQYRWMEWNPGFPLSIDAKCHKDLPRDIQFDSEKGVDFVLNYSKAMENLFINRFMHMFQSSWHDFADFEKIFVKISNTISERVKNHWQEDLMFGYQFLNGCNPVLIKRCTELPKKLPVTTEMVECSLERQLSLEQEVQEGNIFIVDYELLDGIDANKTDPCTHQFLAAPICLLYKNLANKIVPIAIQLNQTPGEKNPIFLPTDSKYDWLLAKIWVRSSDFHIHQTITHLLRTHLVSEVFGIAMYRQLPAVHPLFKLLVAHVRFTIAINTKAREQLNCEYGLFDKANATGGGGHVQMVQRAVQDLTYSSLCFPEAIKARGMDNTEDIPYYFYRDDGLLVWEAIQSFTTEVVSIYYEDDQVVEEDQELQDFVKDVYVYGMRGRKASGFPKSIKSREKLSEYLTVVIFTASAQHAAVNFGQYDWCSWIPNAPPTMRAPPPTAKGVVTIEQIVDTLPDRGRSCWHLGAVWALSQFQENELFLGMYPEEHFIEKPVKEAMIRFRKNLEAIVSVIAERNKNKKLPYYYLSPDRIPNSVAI

Experiment [3] deals with T3, Polyunsaturated fatty acid 5-lipoxygenase (Rattus norvegicus) (UniProt P12527).
T3 sequence (whole entry): T2 sequence (P12527 whole entry)
Kind of experiment: Inhibitory activity against 5-lipoxygenase in intact rat basophilic leukemia cells stimulated with the calcium ionophore A-23187. Format: cell-based. As to conditions: RBL-1; concentration not given here; call rule not given here.

The target in experiment [4] is T2, Polyunsaturated fatty acid 5-lipoxygenase. The experiment is described as follows: Inhibitory activity against 5-lipoxygenase in intact rat basophilic leukemia cells stimulated with the calcium ionophore A-23187; Inactive(N)= <50% inhibition at 10 uM. It is filed as cell-based. To be noted: rbl-1.
In experiment [5] the target is T3, Polyunsaturated fatty acid 5-lipoxygenase (Rattus norvegicus). The experiment is described as follows: Inhibitory activity at 1 uM against 5-lipoxygenase in intact rat basophilic leukemia cells stimulated with the calcium ionophore A-23187. Format: cell-based. As to conditions: RBL-1.
The target in experiment [6] is T2, Polyunsaturated fatty acid 5-lipoxygenase. The experiment is described as follows: Inhibitory activity against 5-lipoxygenase in intact rat basophilic leukemia cells stimulated with the calcium ionophore A-23187; N=Inactive. Format: cell-based. As to conditions: rbl-1.
The subject of experiment [7] is Rattus norvegicus. The experiment is described as follows: 40% inhibition of induced edema in the rat mycobacterium foot-pad edema test. Format: functional.
Experiment [8] deals with Rattus norvegicus. The experiment is described as follows: Inhibition of rat carrageenan induced foot-pad edema at a dose of 10 mg/kg on peroral administration. As to conditions: route oral. It is filed as functional. (The carrageenan paw model is a standard test of acute inflammation.)
Experiment [9] relates to Rattus norvegicus. Kind of experiment: Inhibition of rat carrageenan induced foot-pad edema at a dose of 30 mg/kg on peroral administration. As to conditions: route oral. It is filed as functional.
Experiment [10] concerns the target T1, Cyclooxygenase (Rattus norvegicus). Kind of experiment: Inhibitory activity at 10 uM against Prostaglandin G/H synthase in intact rat basophilic leukemia cells stimulated with the calcium ionophore A-23187. As to conditions: RBL-1. It is filed as cell-based.

On to `C/C(=C1/SC(=O)NC1=O)c1cc(C(C)(C)C)c(O)c(C(C)(C)C)c1`, for which the inhibition in experiment [1] was 52%. Also, the concentration for half-maximal inhibition (IC50) in experiment [2] worked out at 480 nM.

For the molecule `CN(C)C1=NC(=O)/C(=C/c2cc(C(C)(C)C)c(O)c(C(C)(C)C)c2)S1`, the inhibition in experiment [3] worked out at 65%.

Regarding `CNC1=NC(=O)/C(=C/c2cc(C(C)(C)C)c(O)c(C(C)(C)C)c2)S1`, the IC50 result in experiment [4] is recorded as “Inactive”.

On to `CN(C)C(=N)NC1=NC(=O)/C(=C/c2cc(C(C)(C)C)c(O)c(C(C)(C)C)c2)S1`, for which the inhibition in experiment [5] stood at 100%.

For the molecule `O=C1NC(=O)/C(=C/c2ccc(O)cc2)S1`, the IC50 result in [6] is listed as “Not Active”.

Molecule `Cc1ccc(Cl)c(Nc2ccccc2C(=O)[O-])c1Cl.O.[Na+]` [MECLOFENAMATE SODIUM] gave an ID40 in the experiment with Rattus norvegicus [7] of 0.4 mg/kg. Further, testing at 10 mg/kg in the experiment on Rattus norvegicus [8] gave an inhibition in vivo of 34%. The same molecule yielded an inhibition in vivo at 30 mg/kg in the experiment on Rattus norvegicus [9] of 41%.

As to `O=C1NC(=O)/C(=C/c2cc(I)c(O)c(I)c2)S1`, the concentration for half-maximal inhibition (IC50) result in [4] is “Inactive”. Further, the inhibition in experiment [10] came to 60%.

Regarding `CONC1=NC(=O)/C(=C/c2cc(C(C)(C)C)c(O)c(C(C)(C)C)c2)S1`, the concentration for half-maximal inhibition (IC50) entry in experiment [6] is reported as “Not Active”.
